Reference: patent US10501449B2 (priority 2018, dated 2019)
Where two headings read alike, the source gives them in different places.

How the values were obtained:
hERG channels = hERG channels (Homo sapiens (Human), UniProt Q12809); test: hERG Manual Patch Clamp Assay; assay type: cell-based; conditions: human, HEK 293 cells stably expressing hERG channels, pH 7.4, 1 uM, read-out: hERG EP % Inh @ 1 uM
hROMK (human Kir1.1) [1] = biological target: T1, hROMK (human Kir1.1) (Homo sapiens (Human), UniProt P48048); test: cell-based; conditions: CHO T-Rex hROMK stable cell line; thallium flux; 10-point concentration response curve; read-out: Human ROMK Th Flux IC50
T1 sequence (P48048 whole entry): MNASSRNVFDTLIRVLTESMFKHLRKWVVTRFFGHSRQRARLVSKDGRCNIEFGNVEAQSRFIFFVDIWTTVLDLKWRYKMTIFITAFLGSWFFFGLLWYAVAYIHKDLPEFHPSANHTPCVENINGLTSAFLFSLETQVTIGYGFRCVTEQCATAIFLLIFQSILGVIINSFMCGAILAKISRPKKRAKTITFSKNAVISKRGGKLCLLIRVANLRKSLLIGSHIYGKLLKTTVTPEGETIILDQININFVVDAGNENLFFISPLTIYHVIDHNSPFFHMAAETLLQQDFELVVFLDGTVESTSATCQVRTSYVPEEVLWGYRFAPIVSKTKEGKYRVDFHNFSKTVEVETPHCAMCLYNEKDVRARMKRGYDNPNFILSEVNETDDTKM

hROMK (human Kir1.1) [2] = biological target: T1, hROMK (human Kir1.1); test: cell-based; assay type: cell-based; conditions: whole-cell manual patch clamp, CHO T-Rex hROMK stable cell line, voltage step to -120 mV, Ba2+-subtracted hROMK current; read-out: ROMK EP IC50
Description: ROMK Manual Patch Clamp Assay
Cell culture conditions: Cells were maintained in conditions similar to those for Thallium flux assay. hROMK channel expression was induced by adding 0.6 μg/ml of Doxycycline 16-24 hrs prior to the experiments. On the day of experiment, the cells were dissociated using Versene, resuspended in growth media and plated onto coverslips 15 minutes prior to use.
Electrophysiology: The coverslip plated with cells was placed in the experiment chamber perfused with bath solution composed of (in mM): 135 NaCl, 5 KCl, 2 CaCl2, 1 MgCl2, 10 HEPES, 5 Glucose (pH 7.4). Patch pipettes with resistance between 2-5 Megaohms, when filled with a solution containing (in mM): 135 KCl, 1 EGTA, 1 MgCl2, 10 HEPES, 2 Na2ATP (pH 7.3), were used to form gigaseals. The cells were voltage clamped at −75 mV in whole-cell configuration using an Axopatch 200b or Multiclamp 700b (Molecular Devices) amplifier controlled by pClamp Software (Molecular Devices). The current was recorded by applying a voltage step to −120 mV every 10 seconds. […] At the end of the experiment, the cells were perfused with bath solution containing 2 mM Ba^2+ to isolate the contribution of hROMK current.
Data analysis: Raw current values (5 traces each for control, different compound concentration and Ba^2+ treatment groups) were exported from Clampfit into Microsoft Excel where the current remaining after application of Ba^2+ was subtracted from raw current to obtain hROMK specific current.

Chain of hERG channels (Q12809 whole entry): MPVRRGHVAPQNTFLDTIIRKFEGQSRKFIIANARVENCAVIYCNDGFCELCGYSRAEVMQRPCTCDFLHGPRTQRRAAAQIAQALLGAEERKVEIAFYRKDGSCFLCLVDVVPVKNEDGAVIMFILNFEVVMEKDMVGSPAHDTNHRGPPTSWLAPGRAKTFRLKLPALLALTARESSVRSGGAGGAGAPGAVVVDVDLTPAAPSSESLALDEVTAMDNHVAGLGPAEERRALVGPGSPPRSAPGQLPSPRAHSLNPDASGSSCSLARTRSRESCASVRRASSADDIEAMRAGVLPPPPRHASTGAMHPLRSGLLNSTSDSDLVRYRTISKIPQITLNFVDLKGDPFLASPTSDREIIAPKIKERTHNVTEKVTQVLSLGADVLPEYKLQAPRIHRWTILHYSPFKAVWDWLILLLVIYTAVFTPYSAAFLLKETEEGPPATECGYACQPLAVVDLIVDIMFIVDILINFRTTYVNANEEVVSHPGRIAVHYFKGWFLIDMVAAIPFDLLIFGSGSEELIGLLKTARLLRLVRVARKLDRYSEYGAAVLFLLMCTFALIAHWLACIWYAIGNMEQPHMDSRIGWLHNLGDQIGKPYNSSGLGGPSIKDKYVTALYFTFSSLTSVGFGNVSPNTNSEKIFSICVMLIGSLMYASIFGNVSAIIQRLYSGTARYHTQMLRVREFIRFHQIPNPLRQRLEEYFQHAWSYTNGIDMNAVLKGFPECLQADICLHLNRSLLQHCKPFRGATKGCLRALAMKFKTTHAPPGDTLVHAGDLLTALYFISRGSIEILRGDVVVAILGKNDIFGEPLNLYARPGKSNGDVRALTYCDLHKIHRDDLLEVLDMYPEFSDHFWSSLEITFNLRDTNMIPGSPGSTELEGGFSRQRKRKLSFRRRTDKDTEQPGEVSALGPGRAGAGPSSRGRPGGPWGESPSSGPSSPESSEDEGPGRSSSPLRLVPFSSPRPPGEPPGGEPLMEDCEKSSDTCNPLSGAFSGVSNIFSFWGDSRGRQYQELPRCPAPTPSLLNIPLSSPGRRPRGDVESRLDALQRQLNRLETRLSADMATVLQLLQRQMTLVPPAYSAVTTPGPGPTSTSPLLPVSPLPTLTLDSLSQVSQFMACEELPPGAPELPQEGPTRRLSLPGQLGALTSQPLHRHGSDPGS

Row | SMILES | inhibition at 1 µM (hERG channels) | IC50 (hROMK (human Kir1.1) [1]) | IC50 (hROMK (human Kir1.1) [2])
1 | Cc1cc(-n2cc(CN3C[C@H](CO)N(C)[C@H](c4ccc5c(c4C)COC5=O)C3)cn2)ncc1C#N [Example 195-I, 6-(4-(((3R,5R)-3-(hydroxymethyl)-4-methyl-5-(4-methyl-1-oxo-1,3-dihydroisobenzofuran-5-yl)piperaizn-1-yl)methyl)-1H-pyrazol-1-yl)-4-methylnicotinonitrile] | 5.9% | 66 nM | 79 nM
2 | COc1cc(-n2cc(CN3C[C@@H](c4ccc5c(c4C)COC5=O)N[C@@H](C)C3)cn2)ncn1 [Example 207-I, 5-((2R,6S)-4-((1-(6-methoxypyrimidin-4-yl)-1H-pyrazol-4-yl)methyl)-6-methylpiperazin-2-yl)-4-methylisobenzofuran-1(3H)-one] | 10% | 53 nM | 18 nM
3 | Cc1cc(-c2cc(CN3C[C@@H](c4ccc5c(c4C)COC5=O)N[C@@H](C)C3)no2)ncc1C#N [Example 210-I, 4-methyl-6-(3-(((3S,5R)-3-methyl-5-(4-methyl-1-oxo-1,3-dihydroisobenzofuran-5-yl)piperazin-1-yl)methyl)isoxazol-5-yl)nicotinonitrile] | 5.2% | 41 nM | 20 nM
4 | Cc1cn(-c2ncc(CN3CCN[C@H](c4ccc5c(c4C)COC5=O)C3)cn2)cn1 [Example 216-I] | 5.6% | 25 nM | 14 nM
5 | Cc1nn(-c2ncc(CN3CCN[C@H](c4ccc5c(c4C)COC5=O)C3)cn2)cc1C#N [Example 221-I, (R)-3-methyl-1-(5-((3-(4-methyl-1-oxo-1,3-dihydroisobenzofuran-5-yl)piperazin-1-yl)methyl)pyrimidin-2-yl)-1H-pyraozle-4-carbonitrile] | 5.4% | 22 nM | 13 nM
6 | CCc1nn(-c2ncc(CN3CCN[C@H](c4ccc5c(c4C)COC5=O)C3)cn2)cc1C#N [Example 228-I, (R)-3-ethyl-1-(5-((3-(4-methyl-1-oxo-1,3-dihydroisobenzofuran-5-yl)piperazin-1-yl)methyl)pyrimidin-2-yl)-1H-pyrazole-4-carbonitrile] | 16% | 14 nM | 20 nM
7 | Cc1nc(-n2cc(CN3CCN[C@H](c4ccc5c(c4C)COC5=O)C3)cn2)ncc1C#N [Example 230-I, (R)-4-methyl-2-(4-((3-(4-methyl-1-oxo-1,3-dihydroisobenzofuran-5-yl)piperazin-1-yl)methyl)-1H-pyrazol-1-yl)pyrimidine-5-carbonitrile] | 2.2% | 32 nM | 19 nM
8 | Cc1cc(-n2cc(CN3CC(C)O[C@H](c4ccc5c(c4C)COC5=O)C3)cn2)ncc1C#N (stereo partly drawn) [Example 240-I, 4-methyl-6-(4-(((6R)-2-methyl-6-(4-methyl-1-oxo-1,3-dihydroisobenzofuran-5-yl)morpholino)methyl)-1H-pyrazol-1-yl)nicotinonitrile] | 8.3% | 42 nM | 34 nM
9 | COc1cc(-n2cc(CN3CCN[C@H](c4ccc5c(c4C)COC5=O)C3)nn2)ncc1C#N [Example 255-I, (R)-4-methoxy-6-(4-((3-(4-methyl-1-oxo-1,3-dihydroisobenzofuran-5-yl)piperazin-1-yl)methyl)-1H-1,2,3-triazol-1-yl)nicotinonitrile] | 9.5% | 33 nM | 9.1 nM
